Experimental findings from ChEMBL document CHEMBL5500393, “Discovery and Optimization of Novel SaFabI Inhibitors as Specific Therapeutic Agents for MRSA Infection” (J Med Chem, 2024) are described below.

In data set [1] the target is T1, Enoyl-[acyl-carrier-protein] reductase [NADPH] FabI (Staphylococcus aureus) (UniProt Q6GI75).
T1 sequence (whole entry): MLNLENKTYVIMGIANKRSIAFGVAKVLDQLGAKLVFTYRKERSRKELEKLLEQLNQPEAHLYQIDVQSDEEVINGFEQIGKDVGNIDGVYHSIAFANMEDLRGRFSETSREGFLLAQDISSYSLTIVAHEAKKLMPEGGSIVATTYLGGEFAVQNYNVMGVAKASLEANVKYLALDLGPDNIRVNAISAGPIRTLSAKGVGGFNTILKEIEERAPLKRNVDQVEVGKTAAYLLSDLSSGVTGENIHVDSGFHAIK
Description: Inhibition of N-terminal his 6 tagged Staphylococcus aureus Fabi (1 to […] residues) expressed in Escherichia coli BL21 at 2.5 uM incubated for 30 mins in presence of NADPH by fluorescence based microplate reader analysis relative to control.

In data set [2] the test system is Staphylococcus aureus. The data set can be described thus: Antimicrobial activity against […] Staphylococcus aureus NRS271 measured after 24 hrs by CLSI protocol based microdilution method. The data set is classed as functional. (In general: Broth dilution looks for growth in wells or tubes with falling amounts of substance.)
The next data set has as its system Enterococcus faecium. Description: Antimicrobial activity against Enterococcus faecium ATCC19434 measured after 24 hrs by CLSI protocol based microdilution method. The data set is classed as functional.
For data set [3], the system named is Staphylococcus aureus. The data set can be described thus: Antimicrobial activity against […] Staphylococcus aureus ATCC43300 measured after 24 hrs by CLSI protocol based microdilution method. The data set is classed as functional.
Data set [4] concerns Staphylococcus aureus. Description: Antimicrobial activity against […] Staphylococcus aureus ATCC33591 measured after 24 hrs by CLSI protocol based microdilution method. The data set is classed as functional.
In data set [5] the target is T1, Enoyl-[acyl-carrier-protein] reductase [NADPH] FabI (Staphylococcus aureus). The data set can be described thus: Inhibition of N-terminal his 6 tagged Staphylococcus aureus Fabi (1 to […] residues) expressed in Escherichia coli BL21 at 1 uM incubated for 30 mins in presence of NADPH by fluorescence based microplate reader analysis relative to control.
For data set [6], the target named is T2, Enoyl-[acyl-carrier-protein] reductase [NADPH] FabI (Staphylococcus aureus, UniProt Q6GI75).
T2 sequence (Q6GI75 whole entry): T1 sequence (whole entry)
The data set can be described thus: Inhibition of N-terminal his 6 tagged Staphylococcus aureus Fabi (1 to […] residues) expressed in Escherichia coli BL21 incubated for 30 mins in presence of NADPH by fluorescence based microplate reader analysis.

The target in data set [7] is T1, Enoyl-[acyl-carrier-protein] reductase [NADPH] FabI (Staphylococcus aureus). Description: Inhibition of N-terminal his 6 tagged Staphylococcus aureus Fabi (1 to […] residues) expressed in Escherichia coli BL21 at 10 uM incubated for 30 mins in presence of NADPH by fluorescence based microplate reader analysis relative to control.
The test system of another data set is Acinetobacter baumannii. Description: Antimicrobial activity against Acinetobacter baumannii ATCC19606 measured after 24 hrs by CLSI protocol based microdilution method. The format is functional.
Another data set concerns Pseudomonas aeruginosa. The data set can be described thus: Antimicrobial activity against Pseudomonas aeruginosa PAO1 measured after 24 hrs by CLSI protocol based microdilution method. The data set is classed as functional.
The test system of a further data set is Candida albicans. Description: Antimicrobial activity against Candida albicans SC5314 measured after 48 hrs by CLSI protocol based microdilution method. The format is functional.
A further data set relates to Escherichia coli. Description: Antimicrobial activity against Escherichia coli ATCC25922 measured after 24 hrs by CLSI protocol based microdilution method. The data set is classed as functional.
Data set [8] deals with Staphylococcus aureus. The data set can be described thus: Antimicrobial activity against methicillin-susceptible Staphylococcus aureus ATCC25923 measured after 24 hrs by CLSI protocol based microdilution method. The format is functional.
Data set [9] relates to Staphylococcus aureus. Description: Antimicrobial activity against methicillin-susceptible Staphylococcus aureus ATCC29213 measured after 24 hrs by CLSI protocol based microdilution method. The format is functional.
The subject of the next data set is Enterococcus faecalis. The data set can be described thus: Antimicrobial activity against Enterococcus faecalis ATCC29212 measured after 24 hrs by CLSI protocol based microdilution method. The format is functional.
Data set [10] concerns Staphylococcus aureus. The data set can be described thus: Antimicrobial activity against […] Staphylococcus aureus USA300 measured after 24 hrs by CLSI protocol based microdilution method. The data set is classed as functional.
Data set [11] relates to HepG2. Description: Cytotoxicity against human HepG2 cells assessed as survival rate at 400 uM measured after 48 hrs by CCK-8 method relative to control. The data set is classed as functional. To be noted: read-out: Survival.
A short description of data set [12]: Cytotoxicity against HEK293 cells assessed as survival rate at 800 uM measured after 48 hrs by CCK-8 method relative to control. The format is toxicity, cell-based. To be noted: human, read-out: Survival. (In general: Formazan colour is commonly taken as a measure of viable cells.)
Data set [13] in a line: Inhibition of N-terminal his 6 tagged Escherichia coli Fabi (1 to 789 residues) expressed in Escherichia coli BL21 incubated for 30 mins in presence of NADH by fluorescence based microplate reader analysis.
Data set [14] in a line: Selectivity index, ratio of HC50 for sheep erythrocytes to MIC for Staphylococcus aureus. The format is toxicity. To be noted: read-out: Selectivity Index.
The nature of data set [15]: Hemolytic activity in sheep erythrocytes assessed as hemolysis at 128 ug/ml incubated for 1 hr by microplate reader based analysis relative to control. As to conditions: at 128 µg/mL, read-out: Activity. The data set is classed as toxicity, cell-based, Ovis aries, Erythrocyte.
Data set [16] can be described thus: Hemolytic activity in sheep erythrocytes assessed as hemolysis at 64 ug/ml incubated for 1 hr by microplate reader based analysis relative to control. The format is toxicity, cell-based, Ovis aries, Erythrocyte. To be noted: at 64 µg/mL, read-out: Activity.
Data set [17] is described as follows: Inhibition of N-terminal his 6 tagged Acinetobacter baumannii Fabi (1 to 804 residues) expressed in Escherichia coli BL21 incubated for 30 mins in presence of NADH by fluorescence based microplate reader analysis.
Data set [18] in a line: Hemolytic activity in sheep erythrocytes assessed as hemolysis incubated for 1 hr by microplate reader based analysis. The data set is classed as toxicity, cell-based, Ovis aries, Erythrocyte.
The nature of data set [19]: Hemolytic activity in sheep erythrocytes assessed as hemolysis at 256 ug/ml incubated for 1 hr by microplate reader based analysis relative to control. As to conditions: at 256 µg/mL, read-out: Activity. The format is toxicity, cell-based, Ovis aries, Erythrocyte.
The nature of data set [20]: Cytotoxicity against HEK293 cells assessed as survival rate at 400 uM measured after 48 hrs by CCK-8 method relative to control. The format is toxicity, cell-based. As to conditions: human, read-out: Survival.
For data set [21], the system named is HepG2. The data set can be described thus: Cytotoxicity against human HepG2 cells assessed as survival rate at 800 uM measured after 48 hrs by CCK-8 method relative to control. The data set is classed as functional. To be noted: read-out: Survival.
Data set [22] has as its system Staphylococcus aureus. Description: Antimicrobial activity against Staphylococcus aureus measured after 24 hrs by CLSI protocol based microdilution method. The data set is classed as functional.
The test system of data set [23] is Staphylococcus aureus. Description: Antimicrobial activity against […] Staphylococcus aureus ATCC33591 assessed as reduction in DNA content measured after 4 hrs by microplate reader based analysis. The data set is classed as functional.

Values after ≈ are worked out from the molar mass of the structure shown.

For `Cc1cccc(N2CC(c3nc4ccccc4n3C)CC2=O)c1C` (centres undefined), the inhibition (in general, the relative decrease from the control value, in per cent) in data set [1] amounted to 76.8%; in [5] it was 53.1%; in data set [7], 95.7%. For the same compound, the MIC (in general, the lowest concentration found to suppress growth) against Staphylococcus aureus [2] is 16 µg/mL (≈ 50.1 µM); against Enterococcus faecium it was greater than 32 µg/mL; in the data set with Staphylococcus aureus [3], 16 µg/mL (≈ 50.1 µM); against Staphylococcus aureus [4], 8 µg/mL (≈ 25 µM); in the data set on Acinetobacter baumannii it was greater than 32 µg/mL; in the data set with Pseudomonas aeruginosa, greater than 32 µg/mL. Moreover, the MIC against Candida albicans was greater than 32 µg/mL; against Escherichia coli, greater than 32 µg/mL; with Staphylococcus aureus [8], 8 µg/mL (≈ 25 µM); in the data set on Staphylococcus aureus [9], 8 µg/mL (≈ 25 µM); against Enterococcus faecalis, greater than 32 µg/mL; against Staphylococcus aureus [10], 16 µg/mL (≈ 50.1 µM). Moreover, in data set [6], the IC50 (in general, the point on the concentration scale where inhibition reaches its midpoint) came out at 977 nM.

Regarding `CCn1c(C2CC(=O)N(c3cccc(Br)c3C)C2)nc2ccccc21` (centres undefined), the viability at 400 µM with HepG2 [11] was greater than 70%. For the same compound, the viability at 48 h, 800 µM in data set [12] is greater than 65%. The MIC with Staphylococcus aureus [2] is 2 µg/mL (≈ 5.02 µM); in the data set on Enterococcus faecium it was greater than 32 µg/mL; in the data set on Staphylococcus aureus [3] it was 2 µg/mL (≈ 5.02 µM); against Staphylococcus aureus [4], 1 µg/mL (≈ 2.51 µM); in the data set on Acinetobacter baumannii it was greater than 32 µg/mL; in the data set on Pseudomonas aeruginosa it was greater than 32 µg/mL. Moreover, the MIC in the data set on Candida albicans is greater than 32 µg/mL; in the data set on Escherichia coli, greater than 32 µg/mL; in the data set with Staphylococcus aureus [8] it was 2 µg/mL (≈ 5.02 µM); in the data set with Staphylococcus aureus [9], 2 µg/mL (≈ 5.02 µM); against Enterococcus faecalis, greater than 32 µg/mL; against Staphylococcus aureus [10], 1 µg/mL (≈ 2.51 µM). Further, it took 1 µg/mL (≈ 2.51 µM) to inhibit growth against Staphylococcus aureus [22] (MIC). Also, the IC50 in [13] was found to be 35.9 nM; in data set [17], 266 nM; in data set [6], 342 nM. Further, the selectivity ratio in [14] is greater than 128. In data set [15], the hemolysis at 1 h, 128 ug/ml stood at 7.5%. Further, the hemolysis at 1 h, 64 ug/ml in data set [16] came to 4.3%. For the same compound, the inhibition is 82.5% in data set [5] and 96.3% in data set [7]. Also, the HC50 – broadly, the concentration that lyses half of the red blood cells – at 1 h in [18] was greater than 256 µg/mL. Further, the hemolysis at 1 h, 256 ug/ml in data set [19] worked out at 12.7%. For the same compound, in [20], the viability at 48 h, 400 µM was greater than 70%. The viability at 800 µM in the data set with HepG2 [21] is greater than 65%.

With `C[C@H]1COc2c(N3CCN(C)CC3)c(F)cc3c(=O)c(C(=O)O)cn1c23` [LEVOFLOXACIN ANHYDROUS], in the data set on Staphylococcus aureus [23], the MIC worked out at 1 µg/mL (≈ 2.77 µM).
